Source: patent US10870647B2, “Imidazopyridine derivative, method for preparing same, and pharmaceutical composition containing same as active ingredient for preventing or treating cancer” (DAEGU-GYEONGBUK MEDICAL INNOVATION FOUNDATION, priority 2016, dated 2020)

Assays:
Test in all cases: Kinase selectivity, scanMAX Kinase assay panel (DiscoverX), % control at 1 uM
Type in all cases: binding
[1] = molecular target: T1, scanMAX Kinase assay panel (Homo sapiens, UniProt P20794); conditions: MAK; 1 uM; read-out: Percent Control (%)
T1 construct: purchased DiscoverX
T1 sequence (P20794 1-623): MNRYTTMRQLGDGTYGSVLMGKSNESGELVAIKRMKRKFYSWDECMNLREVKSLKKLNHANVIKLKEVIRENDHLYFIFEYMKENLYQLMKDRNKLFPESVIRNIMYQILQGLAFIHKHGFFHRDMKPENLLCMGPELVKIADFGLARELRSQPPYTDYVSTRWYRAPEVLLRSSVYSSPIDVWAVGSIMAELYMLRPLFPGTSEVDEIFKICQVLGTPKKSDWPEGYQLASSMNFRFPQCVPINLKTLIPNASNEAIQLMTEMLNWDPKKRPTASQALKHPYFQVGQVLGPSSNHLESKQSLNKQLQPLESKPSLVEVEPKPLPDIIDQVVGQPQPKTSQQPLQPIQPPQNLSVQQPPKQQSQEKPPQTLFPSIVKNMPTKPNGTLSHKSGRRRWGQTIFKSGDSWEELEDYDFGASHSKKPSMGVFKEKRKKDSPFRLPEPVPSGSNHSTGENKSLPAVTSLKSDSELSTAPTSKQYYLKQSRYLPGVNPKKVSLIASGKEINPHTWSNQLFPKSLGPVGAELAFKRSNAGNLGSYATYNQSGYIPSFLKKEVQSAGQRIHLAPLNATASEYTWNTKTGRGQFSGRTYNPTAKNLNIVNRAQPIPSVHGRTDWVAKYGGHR
In short: (§1)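 1 uM cpd (DMSO) per kinase; % ctrl = [cpd − pos ctrl]/[neg ctrl − pos ctrl] × 100; hit if <35.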

[2] = molecular target: T2, scanMAX Kinase assay panel (Homo sapiens, UniProt Q9HAZ1); conditions: CLK4; 1 uM; read-out: Percent Control (%)
T2 construct: purchased DiscoverX
In short: as §1

[3] = molecular target: T3, scanMAX Kinase assay panel (Homo sapiens, UniProt P42336, E545K); conditions: PIK3CA (E545K); 1 uM; read-out: Percent Control (%)
T3 construct: purchased DiscoverX
In short: as §1

[4] = molecular target: T4, scanMAX Kinase assay panel (Homo sapiens, UniProt Q99683); conditions: ASK1; 1 uM; read-out: Percent Control (%)
T4 construct: purchased DiscoverX
T4 sequence (Q99683 1-1374): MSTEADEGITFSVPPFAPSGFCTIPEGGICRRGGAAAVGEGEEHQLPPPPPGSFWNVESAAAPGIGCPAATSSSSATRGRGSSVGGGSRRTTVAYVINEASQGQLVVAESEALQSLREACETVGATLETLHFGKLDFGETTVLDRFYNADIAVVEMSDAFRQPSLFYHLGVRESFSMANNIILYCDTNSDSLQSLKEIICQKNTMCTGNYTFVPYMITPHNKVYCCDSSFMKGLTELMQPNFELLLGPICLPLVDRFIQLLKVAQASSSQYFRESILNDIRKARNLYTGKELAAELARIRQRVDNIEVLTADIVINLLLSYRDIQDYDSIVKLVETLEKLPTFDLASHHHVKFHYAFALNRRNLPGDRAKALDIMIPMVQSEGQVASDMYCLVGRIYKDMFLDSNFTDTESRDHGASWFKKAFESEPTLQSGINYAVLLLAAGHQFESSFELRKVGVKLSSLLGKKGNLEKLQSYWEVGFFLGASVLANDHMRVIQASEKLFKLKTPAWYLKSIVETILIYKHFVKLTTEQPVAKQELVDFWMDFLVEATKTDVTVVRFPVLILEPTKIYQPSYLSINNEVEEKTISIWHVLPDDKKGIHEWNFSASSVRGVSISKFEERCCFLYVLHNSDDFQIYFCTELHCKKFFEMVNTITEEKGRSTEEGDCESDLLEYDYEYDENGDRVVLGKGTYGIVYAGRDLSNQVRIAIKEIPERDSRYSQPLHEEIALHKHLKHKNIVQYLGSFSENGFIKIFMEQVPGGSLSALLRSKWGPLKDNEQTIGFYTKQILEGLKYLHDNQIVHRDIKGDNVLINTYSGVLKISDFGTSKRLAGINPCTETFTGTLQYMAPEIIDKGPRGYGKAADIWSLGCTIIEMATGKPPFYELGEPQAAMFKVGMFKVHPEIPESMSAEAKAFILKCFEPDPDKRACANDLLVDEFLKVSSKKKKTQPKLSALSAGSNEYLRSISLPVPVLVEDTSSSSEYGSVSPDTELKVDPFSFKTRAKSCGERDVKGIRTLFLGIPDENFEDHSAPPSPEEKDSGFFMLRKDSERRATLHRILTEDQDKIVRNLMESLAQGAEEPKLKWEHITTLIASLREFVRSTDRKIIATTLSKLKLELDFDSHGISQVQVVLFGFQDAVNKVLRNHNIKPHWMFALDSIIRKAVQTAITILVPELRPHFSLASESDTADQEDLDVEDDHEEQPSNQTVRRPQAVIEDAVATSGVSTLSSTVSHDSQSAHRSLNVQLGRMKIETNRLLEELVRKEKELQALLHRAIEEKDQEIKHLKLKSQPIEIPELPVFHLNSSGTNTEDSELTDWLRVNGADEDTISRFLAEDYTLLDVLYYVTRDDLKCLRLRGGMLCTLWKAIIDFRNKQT
In short: as §1

[5] = molecular target: T5, scanMAX Kinase assay panel (Homo sapiens, UniProt P04629); conditions: TRKA; 1 uM; read-out: Percent Control (%)
T5 construct: purchased DiscoverX
In short: as §1

[6] = molecular target: T6, scanMAX Kinase assay panel (Homo sapiens, UniProt Q9BX84); conditions: TRPM6; 1 uM; read-out: Percent Control (%)
T6 construct: purchased DiscoverX
In short: as §1

T2 sequence (Q9HAZ1 whole entry): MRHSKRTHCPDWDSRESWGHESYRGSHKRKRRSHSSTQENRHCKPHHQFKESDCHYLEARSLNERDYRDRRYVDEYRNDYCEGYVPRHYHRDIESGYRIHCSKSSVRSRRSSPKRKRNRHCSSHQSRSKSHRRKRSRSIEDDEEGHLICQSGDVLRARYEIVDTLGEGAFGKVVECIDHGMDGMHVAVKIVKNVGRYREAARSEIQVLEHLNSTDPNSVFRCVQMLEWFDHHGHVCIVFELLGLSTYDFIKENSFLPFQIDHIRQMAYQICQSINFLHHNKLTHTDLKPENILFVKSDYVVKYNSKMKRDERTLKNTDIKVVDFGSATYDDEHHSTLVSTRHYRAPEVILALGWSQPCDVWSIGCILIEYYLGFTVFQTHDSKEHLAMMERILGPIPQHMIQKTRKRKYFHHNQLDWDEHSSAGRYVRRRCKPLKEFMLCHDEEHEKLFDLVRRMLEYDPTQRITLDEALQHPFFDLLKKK
T6 sequence (Q9BX84 whole entry): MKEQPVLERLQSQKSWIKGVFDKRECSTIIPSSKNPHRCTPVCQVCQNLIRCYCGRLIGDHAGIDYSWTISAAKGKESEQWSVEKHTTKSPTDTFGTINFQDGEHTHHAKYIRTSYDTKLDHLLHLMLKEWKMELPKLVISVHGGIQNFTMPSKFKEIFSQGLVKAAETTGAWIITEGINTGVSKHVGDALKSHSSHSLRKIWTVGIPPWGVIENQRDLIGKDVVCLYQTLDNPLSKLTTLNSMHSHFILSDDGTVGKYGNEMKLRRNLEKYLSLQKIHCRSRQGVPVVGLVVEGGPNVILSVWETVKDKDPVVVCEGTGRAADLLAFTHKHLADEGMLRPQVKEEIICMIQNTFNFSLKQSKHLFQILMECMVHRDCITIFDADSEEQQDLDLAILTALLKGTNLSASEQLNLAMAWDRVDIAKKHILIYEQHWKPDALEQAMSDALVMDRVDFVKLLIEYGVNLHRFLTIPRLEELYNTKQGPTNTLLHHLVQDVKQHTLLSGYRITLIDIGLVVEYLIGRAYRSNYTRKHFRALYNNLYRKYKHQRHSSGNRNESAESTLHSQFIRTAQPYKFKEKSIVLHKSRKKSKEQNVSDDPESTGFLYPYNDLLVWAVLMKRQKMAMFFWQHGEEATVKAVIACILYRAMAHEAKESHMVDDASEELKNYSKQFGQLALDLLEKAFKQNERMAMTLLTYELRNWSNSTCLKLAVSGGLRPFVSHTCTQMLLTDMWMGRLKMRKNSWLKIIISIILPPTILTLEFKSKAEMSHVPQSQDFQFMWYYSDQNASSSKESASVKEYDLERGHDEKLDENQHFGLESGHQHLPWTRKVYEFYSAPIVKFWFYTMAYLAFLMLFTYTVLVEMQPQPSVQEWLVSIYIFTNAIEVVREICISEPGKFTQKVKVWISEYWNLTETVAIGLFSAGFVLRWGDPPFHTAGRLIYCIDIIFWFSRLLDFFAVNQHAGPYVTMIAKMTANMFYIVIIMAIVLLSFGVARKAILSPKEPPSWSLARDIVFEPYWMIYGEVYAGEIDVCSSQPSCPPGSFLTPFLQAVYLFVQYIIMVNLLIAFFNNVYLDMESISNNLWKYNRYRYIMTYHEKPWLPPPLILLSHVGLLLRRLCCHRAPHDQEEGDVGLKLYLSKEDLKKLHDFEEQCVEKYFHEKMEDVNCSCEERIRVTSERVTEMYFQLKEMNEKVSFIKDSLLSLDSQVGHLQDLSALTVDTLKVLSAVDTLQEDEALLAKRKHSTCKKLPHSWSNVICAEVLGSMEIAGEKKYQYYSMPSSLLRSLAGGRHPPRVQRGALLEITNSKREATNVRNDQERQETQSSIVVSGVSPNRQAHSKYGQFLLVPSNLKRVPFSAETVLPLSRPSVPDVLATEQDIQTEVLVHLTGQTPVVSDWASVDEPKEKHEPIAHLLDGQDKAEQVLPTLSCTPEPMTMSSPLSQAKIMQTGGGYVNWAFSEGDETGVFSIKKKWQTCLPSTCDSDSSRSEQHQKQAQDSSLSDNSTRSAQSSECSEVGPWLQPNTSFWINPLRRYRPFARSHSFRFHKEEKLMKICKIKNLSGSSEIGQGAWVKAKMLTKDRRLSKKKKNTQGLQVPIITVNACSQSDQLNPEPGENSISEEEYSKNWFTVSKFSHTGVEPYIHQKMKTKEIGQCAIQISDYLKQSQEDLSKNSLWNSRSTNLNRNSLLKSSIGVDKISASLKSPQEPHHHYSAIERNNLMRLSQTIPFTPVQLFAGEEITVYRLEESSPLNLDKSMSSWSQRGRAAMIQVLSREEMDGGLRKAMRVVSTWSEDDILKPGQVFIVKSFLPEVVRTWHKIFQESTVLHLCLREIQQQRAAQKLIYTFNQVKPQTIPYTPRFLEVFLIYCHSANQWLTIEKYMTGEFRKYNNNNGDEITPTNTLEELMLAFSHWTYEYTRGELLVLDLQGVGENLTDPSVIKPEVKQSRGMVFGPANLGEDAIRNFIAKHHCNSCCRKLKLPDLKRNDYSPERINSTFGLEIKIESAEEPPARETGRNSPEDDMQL
T3 sequence (P42336 whole entry E545K): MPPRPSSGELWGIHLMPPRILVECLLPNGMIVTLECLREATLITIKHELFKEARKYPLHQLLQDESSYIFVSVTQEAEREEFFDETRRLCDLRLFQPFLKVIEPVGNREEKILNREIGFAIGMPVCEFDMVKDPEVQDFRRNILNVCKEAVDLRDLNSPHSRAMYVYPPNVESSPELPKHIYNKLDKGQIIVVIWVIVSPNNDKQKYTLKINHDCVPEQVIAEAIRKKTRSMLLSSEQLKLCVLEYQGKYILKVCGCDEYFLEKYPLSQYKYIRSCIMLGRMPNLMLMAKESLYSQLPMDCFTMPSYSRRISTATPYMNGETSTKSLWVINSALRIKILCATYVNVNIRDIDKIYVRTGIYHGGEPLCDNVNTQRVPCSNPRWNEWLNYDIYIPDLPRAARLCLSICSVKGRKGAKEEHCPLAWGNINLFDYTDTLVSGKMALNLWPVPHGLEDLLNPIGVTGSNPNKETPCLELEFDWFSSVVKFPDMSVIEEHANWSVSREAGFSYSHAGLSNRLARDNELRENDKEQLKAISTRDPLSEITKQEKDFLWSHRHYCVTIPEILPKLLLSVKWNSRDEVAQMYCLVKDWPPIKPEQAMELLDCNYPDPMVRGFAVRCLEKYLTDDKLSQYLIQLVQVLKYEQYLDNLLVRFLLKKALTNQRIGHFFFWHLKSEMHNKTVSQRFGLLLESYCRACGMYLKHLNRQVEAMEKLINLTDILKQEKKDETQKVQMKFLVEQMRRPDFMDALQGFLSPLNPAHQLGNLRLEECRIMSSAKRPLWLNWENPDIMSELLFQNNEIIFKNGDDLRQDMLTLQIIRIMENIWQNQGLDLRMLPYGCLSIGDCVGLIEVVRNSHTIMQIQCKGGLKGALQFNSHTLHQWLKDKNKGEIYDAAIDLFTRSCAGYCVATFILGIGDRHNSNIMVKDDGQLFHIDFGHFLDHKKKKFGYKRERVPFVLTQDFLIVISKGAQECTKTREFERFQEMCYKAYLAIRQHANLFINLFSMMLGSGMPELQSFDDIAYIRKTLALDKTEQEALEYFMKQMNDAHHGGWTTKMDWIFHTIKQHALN
T5 sequence (P04629 33-796): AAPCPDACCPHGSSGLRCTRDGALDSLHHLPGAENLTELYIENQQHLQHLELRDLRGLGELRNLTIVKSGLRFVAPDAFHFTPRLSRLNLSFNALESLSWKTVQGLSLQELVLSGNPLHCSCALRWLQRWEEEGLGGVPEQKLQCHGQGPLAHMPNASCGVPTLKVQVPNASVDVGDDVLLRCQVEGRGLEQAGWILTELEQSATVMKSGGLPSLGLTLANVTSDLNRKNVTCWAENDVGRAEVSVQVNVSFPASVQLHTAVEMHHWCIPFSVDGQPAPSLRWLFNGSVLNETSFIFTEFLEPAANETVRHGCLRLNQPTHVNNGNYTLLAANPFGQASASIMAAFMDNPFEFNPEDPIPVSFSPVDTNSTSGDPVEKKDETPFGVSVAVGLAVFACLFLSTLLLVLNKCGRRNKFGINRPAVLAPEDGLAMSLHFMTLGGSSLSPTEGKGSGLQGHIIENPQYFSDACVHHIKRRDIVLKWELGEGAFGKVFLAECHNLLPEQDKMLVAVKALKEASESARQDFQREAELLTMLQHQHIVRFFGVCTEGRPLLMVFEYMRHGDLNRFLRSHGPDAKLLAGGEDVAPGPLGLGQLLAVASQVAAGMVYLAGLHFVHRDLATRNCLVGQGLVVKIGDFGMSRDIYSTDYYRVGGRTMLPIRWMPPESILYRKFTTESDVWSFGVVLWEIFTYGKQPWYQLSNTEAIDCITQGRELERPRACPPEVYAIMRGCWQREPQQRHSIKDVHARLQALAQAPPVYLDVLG

Row | SMILES | remaining binding at 1 µM [1] [%] | remaining binding at 1 µM [2] [%] | remaining binding at 1 µM [3] [%] | remaining binding at 1 µM [4] [%] | remaining binding at 1 µM [5] [%] | remaining binding at 1 µM [6] [%]
1 | Cc1ccc(NC(=O)C2(C(=O)Nc3ccc(F)cc3)CC2)cc1C#Cc1cnc2c(Nc3cnn(C(C)C)c3)cccn12 [Example 78] | 100 | 100 | 92 | 100 | 100 | 87
2 | Cc1cn(-c2cc(NC(=O)c3ccc(C)c(C#Cc4cnc5c(Nc6cnn(C)c6)cccn45)c3)cc(C(F)(F)F)c2)cn1 [Example 12, 4-methyl-N-(3-(4-methyl-1H-imidazol-1-yl)-5-(trifluoromethyl)phenyl)-3-((8-((1-methyl-1H-pyrazol-4-yl)amino)imidazo[1,2-a]pyridin-3-yl)ethynyl)benzamide] | 81 | 100 | 77 | 95 | 1 | 87
3 | Cc1ccc(C(=O)Nc2ccc(CN3CCN(C)CC3)c(C(F)(F)F)c2)cc1C#Cc1cnc2c(Nc3cnn(C)c3)cccn12 [Example 1, 4-methyl-3-((8-((1-methyl-1H-pyrazol-4-yl)amino)imidazo[1,2-a]pyridin-3-yl)ethynyl)-N-(4-((4-methylpiperazin-1-yl)methyl)-3-(trifluoromethyl)phenyl)benzamide] | 10 | 10 | 81 | 100 | 0 | 100
